From ChEMBL document CHEMBL3301361, “Experimental in vitro DMPK and physicochemical data on a set of publicly disclosed compounds”
≈ marks a conversion by molar mass, not a printed value.

Columns and labels:
physchem [1] = conditions: octan-1-ol/water, pH 7.4, LogD7.4
physchem [2] = conditions: pH 7.4 buffer

Compound | logD (physchem [1]) | solubility thermodynamic (physchem [2]) [µM]
C[C@@H]1CN(c2nc(N3CCOCC3)c3ccc(Nc4ccccc4)nc3n2)C[C@H](C)O1 | 4.12 | 1.4 (≈ 0.589 µg/mL)
N#Cc1cnn(-c2ccccc2)c1NC(=O)CN1CCOCC1 | 0.5 | 1020 (≈ 319 µg/mL)
Cc1ccc(CO)cc1N(C)c1ccnc(Nc2cc(N3CCCC3)cc(N3CCOCC3)c2)n1 | 3.8 | 11.5 (≈ 5.46 µg/mL)
COc1cc(Nc2nccc(N(C)c3cc(CO)ccc3C)n2)cc(N2CCOCC2)c1 | 3.9 | 56.2 (≈ 24.5 µg/mL)
CCN(c1ccnc(Nc2cc(N3CCOCC3)cc(N3CCOCC3)c2)n1)c1cc(CO)ccc1C | 3.8 | 72.4 (≈ 36.5 µg/mL)
O=C(Nc1ccccc1)c1ccc(OCCCN2CCCC2)cc1OCc1ccccc1F | 3.85 | 141 (≈ 63.4 µg/mL)
CCn1cc(NC(=O)Cc2ccc(Oc3ccnc4cc(F)ccc34)cc2OC)cn1 | 3.93 | 2 (≈ 0.841 µg/mL)
CNc1cccc(CCOc2ccc(C[C@H](NC(=O)c3c(F)cccc3Cl)C(=O)O)cc2)n1 | -0.42 | 1230 (≈ 581 µg/mL)
CNc1cccc(CCOc2ccc(C[C@H](NC(=O)c3c(Cl)cccc3Cl)C(=O)O)cc2)n1 | -0.15 | 1510 (≈ 739 µg/mL)
CNc1cccc(CCCc2ccc(C[C@H](NC(=O)c3c(Cl)cccc3Cl)C(=O)O)cc2)n1 | 0.57 | 1510 (≈ 736 µg/mL)
O=C(N[C@@H](Cc1ccc(OCCc2ccc3c(n2)NCCC3)cc1)C(=O)O)c1c(Cl)cccc1Cl | 0.33 | 107 (≈ 55.1 µg/mL)
CCn1c(-c2nonc2N)nc2c(C#CC(C)(C)O)ncc(OCC3CCCNC3)c21 (stereo not given) | 0.6 | 135 (≈ 57.4 µg/mL)
O=S(=O)(Cc1c(F)cccc1F)N1CCN(c2ncccc2C(F)(F)F)CC1 | 3.9 | 2 (≈ 0.843 µg/mL)
Cc1ncc(C(N)=O)nc1-c1ccc([C@H]2CC[C@H](C(=O)O)CC2)cc1 | 0.22 | 1230 (≈ 418 µg/mL)
Cc1ccc(Oc2ccc(Nc3ncnc4cccc(O[C@H](C)C(=O)N(C)CCO)c34)cc2C)cn1 | 3.85 | 63.1 (≈ 30.8 µg/mL)
Cc1cc(C)cc(-c2[nH]c3sc(C(C)(C)C(=O)N4C5CCC4CC5)cc3c2CCN2CCN(CC(=O)N(C)C)CC2)c1 | 4.13 | 100 (≈ 59 µg/mL)
Cc1ccc(Oc2ccc(Nc3ncnc4cccc(O[C@H](C)C(=O)N5CCOCC5)c34)cc2C)cn1 | 4.14 | 7.6 (≈ 3.8 µg/mL)
CCn1c(=O)ccc2cc(COc3cc(F)cc(C4(OC)CCOCC4)c3)ccc21 | 3.89 | 1.7 (≈ 0.7 µg/mL)
Cc1cc(C)cc(-c2[nH]c3ccc(C(C)(C)C(=O)N4C5CCC4CC5)cc3c2CCNCCCCc2ccncc2)c1 | 4.3 | 35.5 (≈ 20 µg/mL)
Cc1cc(C)cc(-c2[nH]c3ccc(C(C)(C)C(=O)N4C5CCC4CC5)cc3c2[C@H](C)CNCCc2ccncc2)c1 | 4.35 | 148 (≈ 81.2 µg/mL)

Now from value to compound:

logD (physchem [1]) | solubility thermodynamic (physchem [2]) [µM] | Compound
3.8 | 3.4 (≈ 1.49 µg/mL) | O=C(NCCNC(=O)c1cn(-c2ccccc2)nc1C(F)(F)F)c1ccc(Cl)cn1
3.89 | 3.1 (≈ 1.05 µg/mL) | CCCc1c(C(=O)Nc2ccc(F)cc2C)cnn1-c1ccccc1
4.36 | 3.5 (≈ 1.64 µg/mL) | O=C(NC1CCCC1)C(c1ccncc1)N(Cc1ccco1)C(=O)c1ccc(-c2ccccc2)[nH]1 (stereo not given)
-0.31 | 398 (≈ 181 µg/mL) | CNc1cccc(CCOc2ccc(C[C@H](NC(=O)c3ccccc3Cl)C(=O)O)cc2)n1
0.6 | 324 (≈ 166 µg/mL) | O=C(N[C@@H](Cc1ccc(OCCNc2nc3ccccc3[nH]2)cc1)C(=O)O)c1c(Cl)cccc1Cl
3.84 | 11.5 (≈ 2.56 µg/mL) | O=c1oc(-c2ccccc2)cc2ccccc12
4.1 | 9.8 (≈ 2.76 µg/mL) | Cc1ccc(-c2nn(C(C)(C)C)c3ncnc(N)c23)cc1
4.1 | 7.9 (≈ 1.8 µg/mL) | Oc1ccc(-c2nc3ccccc3s2)cc1
4.06 | 15.1 (≈ 3.96 µg/mL) | c1ccc(Nc2ccnc(Nc3ccccc3)n2)cc1
3.9 | 0.3 (≈ 0.0997 µg/mL) | COc1cc2ncnc(Nc3cc4ccccc4cn3)c2cc1OC
